In assay [1] the test system is transgenic mice of which the endogenous mouse NGF locus was replaced with the human NGF gene. Nature of the assay: Seltzer neuropathic pain model in mice with human NGF gene, Hargreaves' test. In kind it is in vivo. Conditions: 50 mg/kg s.c. at day 8 post-surgery; p<0.05. How it is done: These mice were used in a Seltzer neuropathic pain model to test REGN268 and control mAbs. Following the Seltzer surgery, these mice were tested at day 4 and at day 8 post-surgery to confirm that the thermal hyperalgesia had developed.

Assay [2] has as its target T1, Human NGF (MG87 cells stably transfected with human TrkA receptor) (Homo sapiens, UniProt P01138, DEL136-138/DEL208-209).
T1 construct: host or cells: NGF added exogenously; partner TrkA made by stably transfected MG87 cells
Briefly: NGF-dependent, TrkA receptor-mediated cell growth of MG87 cells (CCK8). In kind it is cell-based. The note with it: 373 pM human NGF; 3 days. How it is done:
The ability of NGF antibodies to block NGF-dependent and TrkA receptor-mediated cell growth activity was carried out using MG87 cells stably transfected with a plasmid encoding human TrkA receptor. Briefly, the transfected cells were trypsinized and resuspended at approximately 2.5×10^5 cells per ml and plated at 5,000 cells per well in a 96-well tissue culture plate. The purified antibody proteins were serially diluted in defined medium plus 0.1% BSA and added to the plated cells at concentrations ranging from 0 to 500 nM. Human NGF was added to the wells to a final concentration of 373 pM. The response was measured after incubating the cells for 3 days at 37° C. in a humidified 5% CO2 incubator. Cell growth activity was measured with a CCK8 kit (Dojindo) and OD450nm recorded. The dependency of the signals on the concentrations of antibody was analyzed and IC50 values reported (Table 10, column 2).

The target in assay [3] is Human NGF binding to human TrkA-hFc (Homo sapiens, UniProt P01138, DEL136-138/DEL208-209). Briefly: BIACORE receptor blocking assay, free NGF bound to TrkA-hFc. Conditions: percentage free NGF bound; NGF 10-25 nM with molar excess of antibody; NGF alone = 100%. The text has this: To identify blocking antibodies, a receptor blocking assay was designed using a BIACORE™ 3000 instrument. Recombinant human TrkA-hFc and human p75-hFc proteins were amine-coupled to a CM5 chip to a density of about 5000-6000 RU.
Human NGF binding to human TrkA-hFc, sequence (P01138 with tags, fused parts or gaps DEL136-138/DEL208-209): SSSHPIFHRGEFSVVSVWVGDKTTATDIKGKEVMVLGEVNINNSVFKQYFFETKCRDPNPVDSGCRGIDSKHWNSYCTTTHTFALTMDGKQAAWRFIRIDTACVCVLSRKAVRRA

Assay [4] relates to NT-3 levels in sera of naïve C57BL/6 mice. Briefly: Serum NT-3 sandwich ELISA, naive mice. Conditions: 50 mg/kg s.c. In kind it is in vivo, mouse. The text has this: The limit of detection (˜40 pg/ml) was defined as two standard deviations (2σ) above background with a minimum of five NT-3 standards to define the response to concentration curve.
(In general: In an ELISA, binding on a coated surface is turned into a signal by an enzyme label.)

The target in another assay is NGF (Homo sapiens, UniProt P01138, DEL136-138/DEL208-209). Briefly: BIACORE surface kinetics, binding affinity for human NGF. How it is done: Antigen binding affinities of the antibodies for human NGF were determined by surface kinetics using a real-time biosensor surface plasmon resonance assay (BIACORE™). Antibodies were captured on either a goat, anti-human or anti-mouse IgG polyclonal antibody surface created by direct amine coupling of the capture antibody to a BIACORE™ chip. Various concentrations of human NGF were injected over the captured antibody surfaces while the association of the antigen to the antibody and the dissociation of the bound complex were monitored in real time. Kinetic analysis was performed to obtain the equilibrium dissociation constant (KD) and dissociation rate constant, and the latter was used to calculate the antigen/antibody complex dissociation t1/2 (Table 1).
NGF, sequence (P01138 with tags, fused parts or gaps DEL136-138/DEL208-209): as above
Antigen binding affinities of selected purified antibodies for NGF were also determined by surface kinetics employing a real-time biosensor surface plasmon resonance assay (BIACORE™) as described above. For convenience, antibody 301272-3H10-A10 was renamed “REGN261” (HCVR/LCVR SEQ ID NOs:84/92 and hIgG1 SEQ ID NO:541); 301272-6E07-D10 was renamed “REGN263” (HCVR/LCVR SEQ ID NO:208/216 and hIgG1 SEQ ID NO:541).

The test system of the next assay is C57BL/6 male mice. Briefly: Complete Freund's Adjuvant (CFA) test of inflammatory pain, Hargreaves' test. In kind it is in vivo, mouse. How it is done: Complete Freund's Adjuvant (CFA) test of inflammatory pain. To determine if anti-NGF antibodies could relieve pain in a chronic peripheral inflammatory mouse model, complete Freund's adjuvant (CFA) was injected subcutaneously (s.c.) into the hind paw of C57BL/6 male mice, causing thermal hyperalgesia, which was measured using the Hargreaves' test (Torres et al. (2007) Pain 130:267-278). Control mice received the vehicle (i.e., PBS) only. After acclimating the mice to the Hargreaves' apparatus (model 336, IITC Life Science) for 2-3 hours per day for 3 days, they were tested in the apparatus with an active intensity setting of 17%. A cut-off time of 25 sec was used to avoid tissue damage. For each mouse, 3 readings were obtained during a period of 30 min per day and the median latency was used for analysis. […] The Hargreaves' test was repeated daily for up to 4 days after CFA injection and % decrease from the baseline in paw withdrawal latency calculated (Tables 12 and 13, mean % change±SEM). […] There was no statistical difference between the tested antibodies and the control antibody. Table 12: n=7 for each group; all groups 10 mg/kg.

Another assay has as its system C57BL/6 mice. Nature of the assay: Post-operative incision pain model, thermal hyperalgesia in Hargreaves' test. The note with it: for mean percent change from Hargreaves baseline: Table 14; for Hargreaves' test result (thermal hyperalgesia): Table 16. In kind it is in vivo, mouse. How it is done:
Post-operative incision pain model. […] For the plantar incision surgery, C57BL/6 mice under isoflurane received an incision through skin, fascia and then isolating the underlying flexor muscle and bisecting vertically. After suture and recovery, the mice were tested for thermal hyperalgesia in the Hargreaves' test and for guarding behavior in the weight bearing test (model 600, IITC Life Science) for 5 days.
Thermal hyperalgesia was studied in the Hargreaves' test and mechanical allodynia was tested in the von Frey test. In this latter test, mice were tested after being acclimated for 2-3 hours for 4 days in an apparatus with a wire mesh floor. The test was performed by applying, in ascending order, a series of von Frey hairs through the wire mesh onto the plantar surface of the hind paw with the incision. A response was considered positive if the paw was raised from the platform in response to application of the filament. Starting from the thinnest hair, each von Frey filament was applied up to five times until a response was observed.

Where two headings read alike, the source gives them in different places.

In general, IC50 refers to the concentration that gives 50% inhibition. Usually Kd stands for the concentration at which binding is half-saturated.

T1 sequence (P01138 with tags, fused parts or gaps DEL136-138/DEL208-209): as above

For the substance “IgG1 Control: negative binding control, IgG1 control (AVASTIN®; Genentech, CA)”, the “relief of neuropathic pain in humanized NGF mice” value in assay [1] is “had no effect”.
For tanezumab [RN624], in assay [2], the IC50 was less than 186 pM. In assay [3], the “% Binding TrkA-hFc” value came to 10%. The “Serum NT-3” value in assay [4] (Day 1, limit of detection ~40 pg/ml) came out at 131 ± 41 pg/mL; in assay [4] (Day 7) it was 199 ± 15 pg/mL; in assay [4] (Day 14), 196 ± 35 pg/mL. Further, in assay [4] (over 1, 7 and 14 days post treatment), the NT-3 levels lay in the range of 131 to 199 pg/mL. The Kd with NGF (Table 1, read-out: KD) is 1.3 pM; in the assay with NGF (Table 2, selected purified antibodies, read-out: KD) it was 1.25 pM; in the assay with NGF (Table 5, read-out: Human NGF KD) it was 1.25 pM; in the assay with NGF (Table 6, selected purified antibodies, read-out: NGF KD) it was 1.25 pM. Moreover, the “% decrease from the baseline in paw withdrawal latency” value in the assay on C57BL/6 male mice (Table 12, 10 mg/kg s.c. 1 hr before CFA, Baseline, mean±SEM) is given as 0.0 ± 0.0%; in the assay on C57BL/6 male mice (Table 12, 10 mg/kg s.c., Day 1 after CFA), −58.3 ± 5.5%; in the assay on C57BL/6 male mice (Table 12, 10 mg/kg s.c., Day 2 after CFA) it was −30.9 ± 5.2%; with C57BL/6 male mice (Table 12, 10 mg/kg s.c., Day 3 after CFA), −20.7 ± 6.3%; in the assay with C57BL/6 male mice (Table 13, 10 mg/kg s.c., Baseline), 0.0 ± 0.0%; in the assay with C57BL/6 male mice (Table 13, 10 mg/kg s.c., Day 1 after CFA) it was −61.7 ± 9.7%. Also, the “% decrease from the baseline in paw withdrawal latency” value in the assay with C57BL/6 male mice (Table 13, 10 mg/kg s.c., Day 2 after CFA) was −33.1 ± 17.9%; in the assay on C57BL/6 male mice (Table 13, 10 mg/kg s.c., Day 3 after CFA), −9.6 ± 15.4%; in the assay with C57BL/6 male mice (Table 13, 10 mg/kg s.c., Day 4 after CFA) it was −0.4 ± 18.5%. Further, in the assay on C57BL/6 mice (10 mg/kg s.c. 1 hr prior to incision, p<0.001-0.05), the “reduction of post-operative pain vs vehicle, Hargreaves' test” value is “significantly reduced the post-operative pain”. For the same substance, in the assay on C57BL/6 mice (25 mg/kg i.p. on day 1 post-surgery, by 72 hours, p<0.001-0.01), the “reversal of thermal hyperalgesia” value is recorded as “return to baseline was not observed”. The “mean percent change from Hargreaves baseline” value was 0.00 ± 0.0% in the assay on C57BL/6 mice (10 mg/kg s.c. 1 hr prior to incision, Baseline, ±SEM); −62.5 ± 10.6% with C57BL/6 mice (10 mg/kg s.c. pre-incision, Day 1 after surgery); −55.2 ± 9.4% with C57BL/6 mice (10 mg/kg s.c. pre-incision, Day 2 after surgery); −5.3 ± 12.1% with C57BL/6 mice (10 mg/kg s.c. pre-incision, Day 3 after surgery); −6.4 ± 8.7% in the assay on C57BL/6 mice (10 mg/kg s.c. pre-incision, Day 4 after surgery); −5.3 ± 5.6% in the assay with C57BL/6 mice (10 mg/kg s.c. pre-incision, Day 5 after surgery). The “Hargreaves' test result (thermal hyperalgesia)” value is 0.0 ± 0.0 with C57BL/6 mice (25 mg/kg i.p. on day 1 post-surgery, Baseline); −68.1 ± 5.2 in the assay with C57BL/6 mice (25 mg/kg i.p., 6 hr after treatment); −40.5 ± 8.9 with C57BL/6 mice (25 mg/kg i.p., 23 hr after treatment); −37.6 ± 7.2 with C57BL/6 mice (25 mg/kg i.p., 47 hr after treatment); −47.2 ± 8.0 in the assay with C57BL/6 mice (25 mg/kg i.p., 72 hr after treatment); −74.7 ± 4.3 in the assay with C57BL/6 mice (25 mg/kg i.p., Day 1 (post-surgery, before injection)).

The record behind these values is US8613927B2, “High affinity human antibodies to human nerve growth factor” (Regeneron Pharmaceuticals, Inc., priority 2007, dated 2013).
